In publication PMC4339681, “2- and 3-substituted imidazo[1,2-a]pyrazines as inhibitors of bacterial type IV secretion” (Bioorganic & Medicinal Chemistry, 2014):

molecular target: T1, VirB11 ATPase HP0525 (Helicobacter pylori, UniProt Q7BK04); experiment: colorimetric in vitro ATPase assay (release of inorganic phosphate), IC50 estimation; type: biochemical; conditions: not given
Experimental: The HP0525 protein was produced recombinantly in Escherichia coli and purified to high purity as described previously.[10] The ATPase activity of HP0525 was measured by monitoring the release of inorganic phosphate (Pi) using an in vitro ATPase assay (see Section 4 and SI). Initially, the inhibitory effects of the compounds were evaluated by performing the ATPase assay with and without compound present at concentrations of 500 μM (or 250 μM), 50 μM and 5 μM (data not shown). The compounds with inhibitory activities were further analyzed for dose-dependency by estimating their IC50s (Fig. 2).
(§1) Assays for the activity of the HP0525 inhibitors were performed using a colorimetric ATPase assay (Innova Biosciences), see SI for details. The enzymatic reactions were performed in 96-well format for 30 min at 37 °C followed by measuring the absorbance at 620 nm, detecting the presence of inorganic phosphate product. […] Michaelis–Menten kinetics were performed under the same conditions as above but with various concentrations of ATP ranging from 0 to 500 μM, with and without 10 μM of compound 11. Both IC50 and Michaelis–Menten kinetics measurements were made in triplicate.
ATPase activity measurements were carried out using a colorimetric in vitro ATPase assay kit (Innova Biosciences), using 96-well ELISA microplates (Greiner Bio-One) with reaction volumes of 100 µL in each well. Multi-pipettes with either 8 tips or 96 tips were used. Enzymatic reactions were performed for 30 min at 37 °C followed by measuring the absorbance at 620 nm, detecting the presence of inorganic phosphate product. Each reaction contained 100 mM Tris–HCl, pH 7.5; 2.5 mM MgCl2; 125 μM ATP; 5% DMSO; 25 mM NaCl; 0.5 mM DTT and 0.053 μM HP0525, with or without inhibitor. In detail, the assay can be described in steps. Step 1: 48 μL of substrate buffer mix (providing the components Tris–HCl, pH 7.5; MgCl2; ATP and DMSO) was dispensed to each well. Step 2: 2 μL of compound (solublized in DMSO) was added to corresponding well. Step 3: Enzymatic reaction was started by the addition of 50 μL of protein (in 50 mM Tris-HCl, pH 7.5; 50 mM NaCl and 1 mM DTT) to the wells. Step 4: Reaction plates were incubated at 37 degrees for 30 min. Step 5: The reaction was stopped by the addition of 25 uL of Gold mix reagent, followed by vigorous mixing. After 2-5 min, 10 uL of stabilizer solution was added to the reaction. Step 6: After an additional 30 min incubation at room temperature, the absorbance at 620 nm was measured using a microplate reader.
In the negative control, the protein was added after the Gold mix, as described in the standard protocol of the Innova Biociences ATPase assay kit. As an alternative negative control, providing equivalent readouts, 10 mM EDTA could also be added at Step 2, then removing the catalytically essential Mg ions from the active site of HP0525.
(§2) Michaelis-Menten kinetics were performed under the same conditions as above but with various concentrations of ATP ranging from 0 to 500 μM, with and without 10 μM of compound 11. Negative controls for each ATP concentration were used. GraphPad Prism version 5.0d for Mac OS X (GraphPad Software, San Diego California USA, www.graphpad.com) was used for the IC50 calculations using the Prism equation for non-linear normalized dose-response ‘Log(Inhibitor) vs. normalized response’ with Hill slope set to 1; and for Michaelis-Menten and Lineweaver-Burk analysis.

T1 sequence (Q7BK04 entry or part of it): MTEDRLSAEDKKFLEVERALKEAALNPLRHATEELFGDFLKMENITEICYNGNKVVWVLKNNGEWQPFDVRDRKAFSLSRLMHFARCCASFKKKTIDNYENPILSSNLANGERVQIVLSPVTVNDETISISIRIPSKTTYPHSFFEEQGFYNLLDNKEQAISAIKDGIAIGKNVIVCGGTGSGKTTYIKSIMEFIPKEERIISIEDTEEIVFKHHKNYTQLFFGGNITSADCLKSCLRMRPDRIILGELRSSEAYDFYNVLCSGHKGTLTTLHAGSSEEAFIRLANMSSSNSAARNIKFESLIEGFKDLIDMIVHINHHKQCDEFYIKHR

Cc1ccc(S(=O)(=O)Nc2nccn3c(-c4ccccc4Oc4ccccc4)cnc23)cc1 [Compound 2] and Cc1ccc(S(=O)(=O)Nc2nccn3cc(-c4ccccc4Oc4ccccc4)nc23)cc1 [Compound 8, 4-methyl-N-[2-(2-phenoxyphenyl)imidazo[1,2-a]pyrazine-8-yl]benzenesulfonamide] are within error of each other in IC50: 96 ± 42 µM for the first, 82 ± 14 µM for the second.

COc1ccc(-c2cnc3c(NS(=O)(=O)c4ccc(C)cc4)nccn23)cc1OC [Compound 3, N-[3-(3,4-dimethoxyphenyl)imidazo[1,2-a]pyrazine-8-yl]-4-methyl-benzenesulfonamide] and COc1ccc(-c2cn3ccnc(NS(=O)(=O)c4ccc(C)cc4)c3n2)cc1OC [Compound 9, N-[2-(3,4-dimethoxylphenyl)imidazo[1,2-a]pyrazine-8-yl]-4-methyl-benzenesulfonamide] are within error of each other in IC50: 144 ± 14 µM for the first, 167 ± 43 µM for the second.

Cc1ccc(S(=O)(=O)Nc2nccn3c(-c4cc(C)cc(C)c4)cnc23)cc1 [Compound 4] and Cc1ccc(S(=O)(=O)Nc2nccn3cc(-c4cc(C)cc(C)c4)nc23)cc1 [Compound 10, N-[2-(3,5-dimethylphenyl)imidazo[1,2-a]pyrazine-8-yl]-4-methylbenzenesulfonamide] are within error of each other in IC50: 154 ± 22 µM for the first, 133 ± 16 µM for the second.

First: Cc1ccc(S(=O)(=O)Nc2ccc(Nc3nccn4c(-c5ccc6ccccc6c5)cnc34)cc2)cc1 [Compound 5, 4-methyl-N-[4-[3-(2-naphthyl)imidazo[1,2-a]pyrazine-8-yl]aminophenyl]benzenesulfonamide]
Second: Cc1ccc(S(=O)(=O)Nc2ccc(Nc3nccn4cc(-c5ccc6ccccc6c5)nc34)cc2)cc1 [Compound 11, 4-methyl-N-[4-[[2-(2-naphthyl)imidazo[1,2-a]pyrazine-8-yl]amino]phenyl]benzenesulfonamide]
The IC50 of the first is 3.3-fold higher: 20 ± 3 µM for the first, 6 ± 1 µM for the second. The second is the more potent here.

First: Cc1ccc(S(=O)(=O)Nc2ccc(Nc3nccn4c(-c5ccsc5)cnc34)cc2)cc1 [Compound 6, 4-methyl-N-[4-[[3-(3-thienyl)imidazo[1,2-a]pyrazine-8-yl]amino]phenyl]benzenesulfonamide]
Second: Cc1ccc(S(=O)(=O)Nc2ccc(Nc3nccn4cc(-c5ccsc5)nc34)cc2)cc1 [Compound 12, 4-methyl-N-[4-[[2-(3-thienyl)imidazo[1,2-a]pyrazine-8-yl]amino]phenyl]benzenesulfonamide]
The IC50 of the first is 2.1-fold lower: 48 ± 7 µM for the first, 99 ± 18 µM for the second.

Going from Cc1ccc(S(=O)(=O)Nc2nccn3cc(-c4ccc5ccccc5c4)nc23)cc1 [Compound 7, 4-methyl-N-[2-(2-naphthyl)imidazo[1,2-a]pyrazine-8-yl]benzenesulfonamide] to Cc1ccc(S(=O)(=O)NCCNc2nccn3cc(-c4ccc5ccccc5c4)nc23)cc1 [Compound 31, 4-Methyl-N-(2-(2-(naphthalen-2-yl)imidazo[1,2-a]pyrazin-8-ylamino)ethyl)benzenesulfonamide], the IC50 falls from 88 ± 14 µM to 7 ± 2 µM (13-fold).

Cc1ccc(S(=O)(=O)Nc2ccc(Nc3nccn4cc(-c5ccccc5Oc5ccccc5)nc34)cc2)cc1 [Compound 13, 4-Methyl-N-(4-(2-(2-phenoxyphenyl)imidazo[1,2-a]pyrazin-8-ylamino)phenyl)benzenesulfonamide] and Cc1ccc(S(=O)(=O)Nc2ccc(Nc3nccn4cc(-c5cnc6ccccc6n5)nc34)cc2)cc1 [Compound 36, 4-Methyl-N-(4-(2-(quinoxalin-2-yl)imidazo[1,2-a]pyrazin-8-ylamino)phenyl)benzenesulfonamide] are within error of each other in IC50: 18 ± 4 µM for the first, 28 ± 6 µM for the second.

First: Nc1nccn2cc(-c3ccc4ccccc4c3)nc12 [Compound 25, 2-(Naphthalen-2-yl)imidazo[1,2-a]pyrazin-8-amine]
Second: Nc1ccc(Nc2nccn3cc(-c4ccc5ccccc5c4)nc23)cc1 [Compound 26, N^’-(2-(Naphthalen-2-yl)imidazo[1,2-a]pyrazin-8-yl)benzene-1,4-diamine]
The IC50 of the first is higher: > 1000 µM for the first, 18 ± 5 µM for the second.

Compared with CS(=O)(=O)Nc1ccc(Nc2nccn3cc(-c4ccc5ccccc5c4)nc23)cc1 [Compound 27, N-(4-(2-(Naphthalen-2-yl)imidazo[1,2-a]pyrazin-8-ylamino)phenyl)methanesulfonamide], O=S(=O)(Nc1ccc(Nc2nccn3cc(-c4ccc5ccccc5c4)nc23)cc1)c1cccc2cccnc12 [Compound 33, N-(4-((2-(Naphthalen-2-yl)imidazo[1,2-a]pyrazin-8-yl)amino)phenyl)quinoline-8-sulfonamide] is 8.7-fold lower in IC50: 61 ± 28 µM for the first, 7 ± 2 µM for the second.

Going from Cc1ccc(S(=O)(=O)Nc2ccc(Oc3nccn4cc(-c5ccc6ccccc6c5)nc34)cc2)cc1 [Compound 28, 4-Methyl-N-(4-(2-(naphthalen-2-yl)imidazo[1,2-a]pyrazin-8-yloxy)phenyl)benzenesulfonamide] to Cc1ccc(S(=O)(=O)Nc2ccc(CNc3nccn4cc(-c5ccc6ccccc6c5)nc34)cc2)cc1 [Compound 29, 4-Methyl-N-(4-((2-(naphthalen-2-yl)imidazo[1,2-a]pyrazin-8-ylamino)methyl)phenyl)benzenesulfonamide], the IC50 rises from 29 ± 9 µM to 75 ± 35 µM (2.6-fold).

Going from Cc1ccc(S(=O)(=O)NCCCNc2nccn3cc(-c4ccc5ccccc5c4)nc23)cc1 [Compound 30, 4-Methyl-N-(3-(2-(naphthalen-2-yl)imidazo[1,2-a]pyrazin-8-ylamino)propyl)benzenesulfonamide] to O=S(=O)(Nc1cccc(Nc2nccn3cc(-c4ccc5ccccc5c4)nc23)c1)c1cccc2cccnc12 [Compound 34, N-(3-((2-(Naphthalen-2-yl)imidazo[1,2-a]pyrazin-8-yl)amino)phenyl)quinoline-8-sulfonamide], the IC50 falls from 58 ± 38 µM to 7 ± 2 µM (8.3-fold).

Going from c1cncc(-c2cccc(Nc3nccn4cc(-c5ccc6ccccc6c5)nc34)c2)c1 [Compound 32, 2-(Naphthalen-2-yl)-N-(3-(pyridin-3-yl)phenyl)imidazo[1,2-a]pyrazin-8-amine] to Cc1ccc(S(=O)(=O)Nc2ccc(Nc3nccn4ccnc34)cc2)cc1 [Compound 35, N-(4-(Imidazo[1,2-a]pyrazin-8-ylamino)phenyl)-4-methylbenzenesulfonamide], the IC50 rises from 4 ± 1 µM to > 1000 µM.

same assay, conditions: 125 μM ATP, 0.053 μM HP0525, 5% DMSO, pH 7.5, 30 min at 37 °C, triplicate; read-out: IC50

“4-methyl-N-[2-(2-naphthyl)imidazo[1,2-a]pyrazine-8-yl]benzenesulfonamide [Compound 1]” and “N-(2-((6-Bromo-2-(naphthalen-2-yl)imidazo[1,2-a]pyrazin-8-yl)amino)ethyl)-4- methylbenzenesulfonamide [Compound 38]” are the same in IC50: 77 ± 16 µM for the first, 77 ± 20 µM for the second.

Work on “N-(4-((6-Bromo-2-(naphthalen-2-yl)imidazo[1,2-a]pyrazin-8-yl)amino)phenyl)-4- methylbenzenesulfonamide [Compound 37]” yielded an IC50 of 6 ± 2 µM.

same assay, conditions: ATPase assay

In the case of Nc1nccn2cc(-c3ccc4ccccc4c3)nc12 [Compound 25, 2-(Naphthalen-2-yl)imidazo[1,2-a]pyrazin-8-amine], the “inhibitory activity in words” value is reported as “complete loss of activity”.
With Cc1ccc(S(=O)(=O)Nc2ccc(Nc3nccn4ccnc34)cc2)cc1 [Compound 35, N-(4-(Imidazo[1,2-a]pyrazin-8-ylamino)phenyl)-4-methylbenzenesulfonamide] the “inhibitory activity in words” value was “complete loss of activity”.

molecular target: T1, VirB11 ATPase HP0525; experiment: steady-state (Michaelis–Menten / Lineweaver–Burk) kinetics, mode of inhibition; type: biochemical; conditions: ATP 0 to 500 μM, with and without 10 μM of compound
Experimental: as §1, §2

Cc1ccc(S(=O)(=O)Nc2ccc(Nc3nccn4cc(-c5ccc6ccccc6c5)nc34)cc2)cc1 [Compound 11, 4-methyl-N-[4-[[2-(2-naphthyl)imidazo[1,2-a]pyrazine-8-yl]amino]phenyl]benzenesulfonamide] was tested, and the mode of inhibition was “competitive inhibitor”.
